Measurements from patent publication US11292821B2, “Peptides and combination of peptides for use in immunotherapy against lung cancer, including NSCLC, SCLC and other cancers” (Immatics Biotechnologies GmbH, priority 2017, dated 2022).

Key:
HLA-A*24 = experiment: MHC binding assay (UV-ligand exchange, β2m ELISA); design: species or system human
CD8+ T cells = experiment: In vitro T-cell priming assay with aAPCs (in vitro immunogenicity for MHC class I presented peptides); type: cell-based, human; conditions: in vitro immunogenicity, HLA A*24

With “6 (KYKDYFPVI; listed as Homo sapiens) [compound 6]” as the substance, how does the “Peptide exchange (peptide exchange yield, MHC class I binding score)” value (shortened to “Peptide exchange”) (HLA-A*24) read?
The value was ““++++” (>75% = ++++)”.

And the “Wells positive [%]” value (CD8+ T cells)?
The value was ““+” (<20% = +)”.

How did the “Peptide exchange” value (HLA-A*24) turn out when “4 (SYEKVINYL; listed as Homo sapiens) [compound 4]” was run?
The value was ““++++” (>75% = ++++)”.

And the “Wells positive [%]” value (CD8+ T cells)?
Its value is ““+” (<20% = +)”.

Which results are given for “15 (KYALLLQDL; listed as Homo sapiens) [compound 15]”?
Peptide exchange (peptide exchange yield, MHC class I binding score) (HLA-A*24): “++++” (>75% = ++++); Wells positive [%] (CD8+ T cells): “+++” (50%-69% = +++)

“59 (KYSTTFFMV; listed as Homo sapiens) [compound 59]” was tested. Which “Peptide exchange” value (HLA-A*24) did it give?
Its value is ““++” (>20% = ++)”.

What about the “Wells positive [%]” value (CD8+ T cells) of the same substance?
Its value is ““++” (20%-49% = ++)”.

For “13 (HYTYILEVF; listed as Homo sapiens) [compound 13]”, which “Peptide exchange” value (HLA-A*24) is on record?
Its value is ““++++” (>75% = ++++)”.

And the “Wells positive [%]” value (CD8+ T cells)?
Its value is ““+++” (50%-69% = +++)”.

With “66 (IYFRDSSFL; listed as Homo sapiens) [compound 66]” as the substance, how does the “Peptide exchange” value (HLA-A*24) read?
The value was ““++++” (>75% = ++++)”.

And the “Wells positive [%]” value (CD8+ T cells)?
The value was ““++” (20%-49% = ++)”.

What does the source list for “386 (VYNDHSIYVW; listed as Homo sapiens) [compound 386]”?
Peptide exchange (peptide exchange yield, MHC class I binding score) (HLA-A*24): “++++” (>75% = ++++); Wells positive [%] (CD8+ T cells): “++” (20%-49% = ++)

Which “Peptide exchange” value (HLA-A*24) does the source give for “8 (PFLPPAACFF; listed as Homo sapiens) [compound 8]” here?
Its value is ““++++” (>75% = ++++)”.

And the “Wells positive [%]” value (CD8+ T cells)?
The value was ““+” (<20% = +)”.

Which results are given for “379 (NYIVPDKQIF; listed as Homo sapiens) [compound 379]”?
Peptide exchange (peptide exchange yield, MHC class I binding score) (HLA-A*24): “+++” (>50 = +++); Wells positive [%] (CD8+ T cells): “+” (<20% = +)

What does the source list for “2 (VWSNVTPLKF; listed as Homo sapiens) [compound 2]”?
Peptide exchange (peptide exchange yield, MHC class I binding score) (HLA-A*24): “++++” (>75% = ++++); Wells positive [%] (CD8+ T cells): “+” (<20% = +)

Which “Peptide exchange” value (HLA-A*24) does the source give for “1 (QYDPTPLTW; listed as Homo sapiens) [compound 1]” here?
The value was ““++++” (>75% = ++++)”.

What about the “Wells positive [%]” value (CD8+ T cells) of the same substance?
The value was ““+” (<20% = +)”.

Which “Peptide exchange” value (HLA-A*24) does the source give for “62 (LYQEILAQL; listed as Homo sapiens) [compound 62]” here?
The value was ““++++” (>75% = ++++)”.

What about the “Wells positive [%]” value (CD8+ T cells) of the same substance?
The value was ““+” (<20% = +)”.

With “16 (TYNPDFSSL; listed as Homo sapiens) [compound 16]” as the substance, how does the “Peptide exchange” value (HLA-A*24) read?
Its value is ““+++” (>50 = +++)”.

What about the “Wells positive [%]” value (CD8+ T cells) of the same substance?
Its value is ““+” (<20% = +)”.

What does the source list for “83 (TYCQNIKEF; listed as Homo sapiens) [compound 83]”?
Peptide exchange (peptide exchange yield, MHC class I binding score) (HLA-A*24): “++++” (>75% = ++++); Wells positive [%] (CD8+ T cells): “+” (<20% = +)

“60 (TYLSIFDQL; listed as Homo sapiens) [compound 60]” was tested. Which “Peptide exchange” value (HLA-A*24) did it give?
The value was ““+++” (>50 = +++)”.

What about the “Wells positive [%]” value (CD8+ T cells) of the same substance?
The value was ““+” (<20% = +)”.

For “10 (VWSDVTPLNF; listed as Homo sapiens) [compound 10]”, which “Peptide exchange” value (HLA-A*24) is on record?
Its value is ““++++” (>75% = ++++)”.

What about the “Wells positive [%]” value (CD8+ T cells) of the same substance?
The value was ““+” (<20% = +)”.

With “35 (KYLEESVWL; listed as Homo sapiens) [compound 35]” as the substance, how does the “Peptide exchange” value (HLA-A*24) read?
Its value is ““++++” (>75% = ++++)”.

“383 (RYKQDVERF; listed as Homo sapiens) [compound 383]” was tested. Which “Peptide exchange” value (HLA-A*24) did it give?
The value was ““+++” (>50 = +++)”.

What about the “Wells positive [%]” value (CD8+ T cells) of the same substance?
The value was ““+++” (50%-69% = +++)”.

For “29 (VYPLLSRLYW; listed as Homo sapiens) [compound 29]”, which “Peptide exchange” value (HLA-A*24) is on record?
The value was ““++++” (>75% = ++++)”.

Which “Peptide exchange” value (HLA-A*24) does the source give for “76 (WYGWHFPEL; listed as Homo sapiens) [compound 76]” here?
The value was ““+++” (>50 = +++)”.

What about the “Wells positive [%]” value (CD8+ T cells) of the same substance?
Its value is ““+” (<20% = +)”.

With “31 (QYQNVLTLW; listed as Homo sapiens) [compound 31]” as the substance, how does the “Peptide exchange” value (HLA-A*24) read?
Its value is ““++++” (>75% = ++++)”.

Which “Peptide exchange” value (HLA-A*24) does the source give for “75 (NYIYSISVF; listed as Homo sapiens) [compound 75]” here?
Its value is ““++++” (>75% = ++++)”.

With “42 (TLPNTIYRF; listed as Homo sapiens) [compound 42]” as the substance, how does the “Peptide exchange” value (HLA-A*24) read?
The value was ““++++” (>75% = ++++)”.

“69 (IMPEKFEFW; listed as Homo sapiens) [compound 69]” was tested. Which “Peptide exchange” value (HLA-A*24) did it give?
The value was ““++++” (>75% = ++++)”.

Which “Peptide exchange” value (HLA-A*24) does the source give for “380 (VFQEKHHVI; listed as Homo sapiens) [compound 380]” here?
Its value is ““+++” (>50 = +++)”.

What about the “Wells positive [%]” value (CD8+ T cells) of the same substance?
Its value is ““+” (<20% = +)”.

Which results are given for “79 (RYLADLPTL; listed as Homo sapiens) [compound 79]”?
Peptide exchange (peptide exchange yield, MHC class I binding score) (HLA-A*24): “++++” (>75% = ++++); Wells positive [%] (CD8+ T cells): “+” (<20% = +)

With “24 (MYPDLSELLM; listed as Homo sapiens) [compound 24]” as the substance, how does the “Peptide exchange” value (HLA-A*24) read?
The value was ““++++” (>75% = ++++)”.

For “384 (KYVKVFDKF; listed as Homo sapiens) [compound 384]”, which “Peptide exchange” value (HLA-A*24) is on record?
The value was ““++++” (>75% = ++++)”.

And the “Wells positive [%]” value (CD8+ T cells)?
Its value is ““+++” (50%-69% = +++)”.

For “382 (IYHSHHPTL; listed as Homo sapiens) [compound 382]”, which “Peptide exchange” value (HLA-A*24) is on record?
Its value is ““+++” (>50 = +++)”.

“58 (QFAAPLRGIYF; listed as Homo sapiens) [compound 58]” was tested. Which “Peptide exchange” value (HLA-A*24) did it give?
The value was ““++++” (>75% = ++++)”.

With “18 (DYIGSVEKW; listed as Homo sapiens) [compound 18]” as the substance, how does the “Peptide exchange” value (HLA-A*24) read?
The value was ““++++” (>75% = ++++)”.

What does the source list for “72 (RYEGILYTI; listed as Homo sapiens) [compound 72]”?
Peptide exchange (peptide exchange yield, MHC class I binding score) (HLA-A*24): “++++” (>75% = ++++); Wells positive [%] (CD8+ T cells): “+” (<20% = +)

“81 (LYPEGLRLL; listed as Homo sapiens) [compound 81]” was tested. Which “Peptide exchange” value (HLA-A*24) did it give?
The value was ““++++” (>75% = ++++)”.

For “65 (VYPASKMFPFI; listed as Homo sapiens) [compound 65]”, which “Peptide exchange” value (HLA-A*24) is on record?
Its value is ““++++” (>75% = ++++)”.

And the “Wells positive [%]” value (CD8+ T cells)?
The value was ““+” (<20% = +)”.

For “14 (SYSSCYSF; listed as Homo sapiens) [compound 14]”, which “Peptide exchange” value (HLA-A*24) is on record?
Its value is ““+++” (>50 = +++)”.

“64 (NYAIFDEGHML; listed as Homo sapiens) [compound 64]” was tested. Which “Peptide exchange” value (HLA-A*24) did it give?
The value was ““++++” (>75% = ++++)”.

Which “Peptide exchange” value (HLA-A*24) does the source give for “34 (MQPRMFFLF; listed as Homo sapiens) [compound 34]” here?
Its value is ““++++” (>75% = ++++)”.

For “375 (VYSDLHAFYY; listed as Homo sapiens) [compound 375]”, which “Peptide exchange” value (HLA-A*24) is on record?
Its value is ““++++” (>75% = ++++)”.

And the “Wells positive [%]” value (CD8+ T cells)?
The value was ““+” (<20% = +)”.

Which “Peptide exchange” value (HLA-A*24) does the source give for “45 (KYFVPPQLF; listed as Homo sapiens) [compound 45]” here?
Its value is ““++++” (>75% = ++++)”.

How did the “Peptide exchange” value (HLA-A*24) turn out when “61 (NYAENILTL; listed as Homo sapiens) [compound 61]” was run?
The value was ““+++” (>50 = +++)”.

And the “Wells positive [%]” value (CD8+ T cells)?
Its value is ““++” (20%-49% = ++)”.

Which “Peptide exchange” value (HLA-A*24) does the source give for “36 (KQMEDGHTLF; listed as Homo sapiens) [compound 36]” here?
Its value is ““++” (>20% = ++)”.

With “19 (ILKEDPFLF; listed as Homo sapiens) [compound 19]” as the substance, how does the “Peptide exchange” value (HLA-A*24) read?
The value was ““+” (>10% = +)”.

With “376 (KYVKDFHKF; listed as Homo sapiens) [compound 376]” as the substance, how does the “Peptide exchange” value (HLA-A*24) read?
Its value is ““++++” (>75% = ++++)”.

Which “Peptide exchange” value (HLA-A*24) does the source give for “63 (VMPSDSFFF; listed as Homo sapiens) [compound 63]” here?
The value was ““++++” (>75% = ++++)”.

Which “Peptide exchange” value (HLA-A*24) does the source give for “11 (YYSKSVGFMQW; listed as Homo sapiens) [compound 11]” here?
Its value is ““++++” (>75% = ++++)”.

What about the “Wells positive [%]” value (CD8+ T cells) of the same substance?
The value was ““++” (20%-49% = ++)”.

With “33 (KSSVIASLLF; listed as Homo sapiens) [compound 33]” as the substance, how does the “Peptide exchange” value (HLA-A*24) read?
Its value is ““+++” (>50 = +++)”.

“67 (RYPGKFYRV; listed as Homo sapiens) [compound 67]” was tested. Which “Peptide exchange” value (HLA-A*24) did it give?
Its value is ““++++” (>75% = ++++)”.

With “51 (KYALLLQEL; listed as Homo sapiens) [compound 51]” as the substance, how does the “Peptide exchange” value (HLA-A*24) read?
Its value is ““++++” (>75% = ++++)”.

“7 (VQQWSVAVF; listed as Homo sapiens) [compound 7]” was tested. Which “Peptide exchange” value (HLA-A*24) did it give?
The value was ““+++” (>50 = +++)”.
